From patent publication US6900219B2, “ABCA-1 elevating compounds” (CV Therapeutics, Inc., priority 2002, dated 2005)

Test system: ABCA-1 gene
Test: compounds tested and found to elevate cellular expression of the ABCA-1 gene (Examples 1-6; test not named)
Type: cell-based
Method: Activity testing is conducted as described in those patents and patent applications referenced above, and in the Examples below, and by methods apparent to one skilled in the art.

| SMILES | cellular expression of the ABCA-1 gene |
| --- | --- |
| CC(C)c1ccc(NC(=O)N(Cc2ccco2)C(C)c2nc3ccccc3c(=O)n2-c2ccc(Cl)cc2)cc1 (stereo not shown) [N-{[3-(4-chlorophenyl)-4-oxo(3-hydroquinazolin-2-yl)]ethyl}-N-(2-furylmethyl){[4-(methylethyl)phenyl]amino}carboxamide] | elevate cellular expression of the ABCA-1 gene |
| CCCN(C(=O)Nc1cccc(OC)c1)C(C)c1nc2cc(Cl)ccc2c(=O)n1-c1ccc(C)cc1 (stereo not shown) [N-{[7-chloro-3-(4-methylphenyl)-4-oxo(3-hydroquinazolin-2-yl)]ethyl}[(3-methoxyphenyl)amino]-N-propylcarboxamide] | elevate cellular expression of the ABCA-1 gene |
| Cc1c(C(=O)NC(=O)Nc2ccccc2Cl)cnn1-c1ccccc1 [N-{[(2-chlorophenyl)amino]carbonyl}(5-methyl-1-phenylpyrazol-4-yl)carboxamide] | elevate cellular expression of the ABCA-1 gene |
| CCN(CCCN(CC)c1nc2cc(C(=O)Nc3ccc(OC)cc3)ccc2o1)C(=O)c1cccc(F)c1C [[2-(ethyl{3-[N-ethyl(3-fluoro-2-methylphenyl)carbonylamino]propyl}amino)benzoxazol-5-yl]-N-(4-methoxyphenyl)carboxamide] | elevate cellular expression of the ABCA-1 gene |
| O=C(Nc1ncc(-c2ccccc2)s1)c1ccc(C(F)(F)F)cc1F [[2-fluoro-4-(trifluoromethyl)phenyl]-N-(5-phenyl(1,3-thiazol-2-yl))carboxamide] | elevate cellular expression of the ABCA-1 gene |
| Cc1onc(-c2ccccc2Cl)c1C(=O)Nc1ncc(-c2ccccc2)s1 [[3-(2-chlorophenyl)-5-methylisoxazol-4-yl]-N-(5-phenyl(1,3-thiazol-2-yl))carboxamide] | elevate cellular expression of the ABCA-1 gene |
| O=C(Nc1ncc(-c2ccccc2)s1)c1ccc(C(F)(F)F)c(F)c1 [[3-fluoro-4-(trifluoromethyl)phenyl]-N-(5-phenyl(1,3-thiazol-2-yl))carboxamide] | elevate cellular expression of the ABCA-1 gene |
| CCc1c(C(=O)N2CCN(C(=O)c3cccc(Br)c3)C(C)C2)cnn1-c1nc(-c2ccc(Cl)cc2)cs1 (stereo not shown) [[4-(3-bromo-benzoyl)-3-methyl-piperazin-1-yl]-{1-[4-(4-chloro-phenyl)-thiazol-2-yl]-5-ethyl-1H-pyrazol-4-yl}-methanone] | elevate cellular expression of the ABCA-1 gene |
| CCc1c(C(=O)N2CCN(C(=O)c3ccc(-c4ccccc4)cc3)C(C)C2)cnn1-c1nc(-c2ccc(OC)cc2)cs1 (stereo not shown) [[4-(biphenyl-4-carbonyl)-3-methyl-piperazin-1-yl]-{5-ethyl-1-[4-(4-methoxy-phenyl)-thiazol-2-yl]-1H-pyrazol-4-yl}-methanone] | elevate cellular expression of the ABCA-1 gene |
| CN(C)c1ccc(C(=O)NC2=NCCS2)cc1 [[4-(dimethylamino)phenyl]-N-(1,3-thiazolin-2-yl)carboxamide] | elevate cellular expression of the ABCA-1 gene |
| CN(C)c1ccc(C(=O)NC2=NC(=O)CS2)cc1 [[4-(dimethylamino)phenyl]-N-(4-oxo(1,3-thiazolin-2-yl))carboxamide] | elevate cellular expression of the ABCA-1 gene |
| CC(C)c1ccc(C(=O)NC2=NCCS2)cc1 [[4-(methylethyl)phenyl]-N-(1,3-thiazolin-2-yl)carboxamide] | elevate cellular expression of the ABCA-1 gene |
| CC(C)(C)c1ccc(C(=O)NC2=NCCS2)cc1 [[4-(tert-butyl)phenyl]-N-(1,3-thiazolin-2-yl)carboxamide] | elevate cellular expression of the ABCA-1 gene |
| CC(C)(C)c1ccc(C(=O)Nc2nc(-c3ccc4ccccc4c3)cs2)cc1 [[4-(tert-butyl)phenyl]-N-(4-(2-naphthyl)(1,3-thiazol-2-yl))carboxamide] | elevate cellular expression of the ABCA-1 gene |
| CC(C)(C)c1ccc(C(=O)NC2=NC(=O)CS2)cc1 [[4-(tert-butyl)phenyl]-N-(4-oxo(1,3-thiazolin-2-yl))carboxamide] | elevate cellular expression of the ABCA-1 gene |
| CC(C)(C)c1ccc(C(=O)Nc2ncc(-c3ccccc3)s2)cc1 [[4-(tert-butyl)phenyl]-N-(5-phenyl(1,3-thiazol-2-yl))carboxamide] | elevate cellular expression of the ABCA-1 gene |
| CC(C)(C)c1ccc(C(=O)Nc2nc(-c3ccc(Cl)cc3)cs2)cc1 [[4-(tert-butyl)phenyl]-N-[4-(4-chlorophenyl)(1,3-thiazol-2-yl)]carboxamide] | elevate cellular expression of the ABCA-1 gene |
| CC(C)(C)c1ccc(C(=O)N(CCc2ccccn2)Cc2ccccc2[N+](=O)[O-])cc1 [[4-(tert-butyl)phenyl]-N-[(2-nitrophenyl)methyl]-N-(2-(2-pyridyl)ethyl)carboxamide] | elevate cellular expression of the ABCA-1 gene |
| CC(c1nc2ccccc2c(=O)n1-c1ccc2ccccc2c1)N(CCN(C)C)C(=O)Nc1ccc(F)cc1F (stereo not shown) [[(2,4-difluorophenyl)amino]-N-[2-(dimethylamino)ethyl]-N-[(3-(2-naphthyl)-4-oxo(3-hydroquinazolin-2-yl))ethyl]carboxamide] | elevate cellular expression of the ABCA-1 gene |
| CCC(c1nc2ccccc2c(=O)n1-c1ccc(Cl)cc1)N(CCOC)C(=O)Nc1ccc(F)cc1F (stereo not shown) [[(2,4-difluorophenyl)amino]-N-{[3-(4-chlorophenyl)-4-oxo(3-hydroquinazolin-2-yl)]propyl}-N-(2-methoxyethyl)carboxamide] | elevate cellular expression of the ABCA-1 gene |
| Cc1cccc(C)c1NC(=O)N(Cc1ccccc1)C(C)c1nc2ccccc2c(=O)n1-c1ccc2ccccc2c1 (stereo not shown) [[(2,6-dimethylphenyl)amino]-N-[(3-(2-naphthyl)-4-oxo(3-hydroquinazolin-2-yl))ethyl]-N-benzylcarboxamide] | elevate cellular expression of the ABCA-1 gene |
| Cc1ccccc1NC(=O)N(CC(C)C)C(C)c1nc2ccccc2c(=O)n1-c1ccc2ccccc2c1 (stereo not shown) [[(2-methylphenyl)amino]-N-(2-methylpropyl)-N-[(3-(2-naphthyl)-4-oxo(3-hydroquinazolin-2-yl))ethyl]carboxamide] | elevate cellular expression of the ABCA-1 gene |
| CC(C)CN(C(=O)Nc1cccc(Br)c1)C(C)c1nc2ccccc2c(=O)n1-c1ccc2ccccc2c1 (stereo not shown) [[(3-bromophenyl)amino]-N-(2-methylpropyl)-N-[(3-(2-naphthyl)-4-oxo(3-hydroquinazolin-2-yl))ethyl]carboxamide] | elevate cellular expression of the ABCA-1 gene |
| CC(C)CN(C(=O)Nc1cccc(Cl)c1)C(C)c1nc2ccccc2c(=O)n1-c1ccc2ccccc2c1 (stereo not shown) [[(3-chlorophenyl)amino]-N-(2-methylpropyl)-N-[(3-(2-naphthyl)-4-oxo(3-hydroquinazolin-2-yl))ethyl]carboxamide] | elevate cellular expression of the ABCA-1 gene |
| O=C(Nc1cccc(Cl)c1)Nc1ccc2c(c1)CCC2 [[(3-chlorophenyl)amino]-N-indan-5-ylcarboxamide] | elevate cellular expression of the ABCA-1 gene |
